In assay [1] the test system is primary human mesangial cells. As to the kind of experiment: Northern Blot of genes differentially induced in mesangial cells cultured in high glucose or mannitol (Table 1). The format is cell-based. On the set-up: key to Differential Expression of IHG-1 mRNA: *: detected in mesangial cells cultured in 5 mM glucose+25 mM mannitol and 30 mM glucose, but not in 5 mM glucose. The following applies: 25 mM mannitol + 5 mM glucose, relative to 5 mM glucose. Here is the method:
Primary human mesangial cells were cultured as previously reported (Brady, H. R., et al. (1992) Kidney Int. 42, 480-487 and Denton, M. D., et al. (1991) Am. J. Physiol. 261, F1071-F1079). Cells (passage 7-11) were maintained in medium (Clonetics) containing either 5 mM or 30 mM D-glucose for 7 days. Culture medium was replenished three times during this period to maintain glucose levels in the desired range. To control for the effects of hyperosmolarity, mesangial cells were cultured in media containing 5 mM glucose supplemented with 25 mM mannitol. […] Northern Blots performed using formaldehyde denaturation according to standard protocols and quantitated using a Phosphor Imager (Biorad) confirmed differential expression of fifteen of the sixteen subcloned fragments as indicated in Table 1. ^c refers to the differential expression of each gene based on Northern Blot analysis of primary human mesangial cells cultured under indicated conditions relative to expression in cells cultured in 5 mM glucose. Values were obtained by Phosphor-Imaging and were normalised by comparison with glyceraldehyde-3-phosphate dehydrogenase (GAPDH) (*, detected in mesangial cells cultured in 5 mM glucose+25 mM mannitol and 30 mM glucose, but not in 5 mM glucose, fold expression is degree of expression relative to that found in 5 mM glucose). Within a diabetic milieu, high glucose levels may perturb cellular function through glucose-specific actions or by increasing the osmolarity of extracellular fluids. The role of hyperosmolarity as a mediator of gene induction by high glucose was assessed by comparing mRNA levels, as determined by Northern Blot, in cells cultured in either 30 mM glucose or in 5 mM glucose supplemented with 25 mM mannitol. […] High glucose and mannitol-induced hyperosmolarity afforded equivalent induction of the other products.

Another assay concerns CTGF. As to the kind of experiment: CTGF mRNA levels in mesangial cells by Northern Blot, Phosphor Imager quantification. The format is cell-based, human. An excerpt:
CTGF, is a 38 kD cysteine-rich secreted peptide known to modulate ECM production in some extrarenal cell types. In Example 1, SSH analysis identified a cDNA fragment of 250 bp which was identical to bases 814-1061 of the human CTGF cDNA. Induction of CTGF mRNA expression in primary human mesangial cells cultured in high glucose was investigated by Northern Blotting as shown in FIG. 1.
A 2.4 kb band was detected following hybridisation with the CTGF probe. All of the values were normalised to GAPDH levels and the results are representative of three independent experiments.
To assess the role of TGF-β1 as a stimulus for CTGF expression in response to high glucose, cells were incubated in either 5 mM glucose or 30 mM glucose plus 1 μl/ml anti-TGF-β1 antibody for seven days with three changes of medium. Cells were serum starved for 24 hr in RPMI 1640 and 0.5% FBS. 10 ng/ml TGF-β1 Calbiochem) or 10 ng/ml TGF-β1 preadsorbed with 1 μg/ml neutralising anti-TGF-β1 polyclonal antibody were subsequently added for 24 hr.
The role of PKC on CTGF expression in response to high glucose was investigated by culturing the mesangial cells in either 5 mM, 30 mM glucose or 30 mM glucose and the PKC inhibitor GF 102903X.
FIG. 7 is an autoradiograph of CTGF mRNA levels analysed by Northern Blot and depicts the results obtained when mesangial cells were exposed to TGF-β1 (10 ng/ml) for 24 hr in the presence (lane 3) and absence (lane 2) of anti-TGF-β1 neutralising antibody (1 μg/ml). Cells cultured in RPMI 1640 and 0.5% FBS for 24 hr served as control (lane 1). A 2.4 kb band was detected following hybridisation to the CTGF probe. The blot was stripped and reprobed with GAPDH. The relative amount of CTGF mRNA as estimated by Phosphor Imager quantification (FIG. 8). Values were normalised to GAPDH levels and the results are representative of two independent experiments.
FIG. 9 is an autoradiograph of CTGF mRNA levels analysed by Northern Blot and depicts the results obtained when mesangial cells were exposed to 5 mM glucose (lane 1), 30 mM glucose (lane 2) and 30 mM glucose in the presence of anti-TGF-β1 neutralising antibodies (1 μg/ml) (lane 3) for seven days. A 2.4 kb band was detected following hybridisation to the CTGF probe. The blot was stripped and probed with GAPDH. The relative amount of CTGF MRNA as estimated by Phosphor Imager quantification (FIG. 10). […]
FIG. 11 is an autoradiograph of CTGF mRNA levels analysed by Northern Blot and depicts the results obtained when mesangial cells were exposed to 5 mM glucose (lane 1), 30 mM glucose (lane 2) and 30 mM glucose in PKC inhibitor GF102903X (10 μM) (lane 3) for four days. A 2.4 kb band was detected following hybridisation to the CTGF probe. […] The relative amount of CTGF rnRNA as estimated by Phosphor Imager quantification (FIG. 12). […]

Another assay concerns gremlin. The assay is described as follows: Gremlin mRNA levels in mesangial cells by Northern Blot. The format is cell-based. The following applies: human recombinant TGF-β1 10 ng/ml, 24 h, serum restricted mesangial cells. Here is the method: A) Primary cultures of human mesangial cells were propagated as described in Example 1, except that the medium was supplemented with 5% FBS. Treatment of cultures with glucose was carried out as described in Example 1. […]
Northern Blot analysis as described further below was performed on RNA extracted from mesangial cells grown in either 5 mM (‘normal’) or 30 mM (‘high’) glucose using the ORF of gremlin and IHG-2 probes. Both probes detected a 2-fold increase in gene expression under high glucose conditions as depicted in FIG. 16.
Northern Blots were performed using formaldehyde denaturation according to standard protocols and quantitated using a phosphorimager (Biorad). PCR products used to generate the probes for northern analysis were amplified using primers for the open reading frame (ORF) of gremlin (sense: […] (SEQ ID NO: 17); antisense […] (SEQ ID NO: 18)), and for IHG-2 (sense: […] (SEQ ID NO 19); antisense: […] (SEQ ID NO: 20)). Fibronectin and GAPDH probes were generated as described in Example 2
As indicated above, both high ambient glucose concentrations and cyclic mechanical strain provoke TGF-β1 production by mesangial cells in vitro and TGF-β1 appears to be a major stimulus for mesangial matrix accumulation in diabetic glomeruli in vivo. […]

The next assay concerns mesangial cells. As to the kind of experiment: Effect of rhCTGF on mesangial cell matrix production (RT-PCR). The following applies: rhCTGF 8 ng/ml, 24 hr, serum starved mesangial cells. It counts as cell-based, human. Here is the method: To investigate the direct effects of CTGF up-regulation on matrix production, in particular the effect on collagens I and IV and fibronectin, mesangial cells were incubated with recombinant CTGF protein.
Mesangial cells were serum starved for 24 hr in RPMI 1640 medium supplemented with 0.5 % fetal bovine serum (FBS) and then exposed to rhCTGF (8 ng/ml) (a generous gift from Dr. Gary Grotendorst) for 24 hr (Kreisberg, J. I. and Ayo, S. H. (1993). Kidney Int. 43, 109-113). Total RNA was extracted and chromosomal DNA was removed using DNase 1 (Gibco-BRL). Equal amounts of cDNA were subsequently amplified by PCR using specific primers for GAPDH (Gen/EMBL accession no. AJ005371, sense: […] (SEQ ID NO: 7); antisense: […] (SEQ ID NO: 8), Collagen I (Gen/EMBL accession no. X55525, sense: […] (SEQ ID NO: 9); antisense: […] (SEQ ID NO: 10)), Collagen IV (Gen/EMBL accession no. M11315, sense: […] (SEQ ID NO: 11); antisense: […] (SEQ ID NO: 12) and fibronectin (Gen/EMBL accession no. X0276 1, sense: CGAAATCACAGCCAGTAG (SEQ ID NO. 13), antisense: ATCACATCCACACGGTAG (SEQ ID NO: 14)).
FIG. 3 depicts ethidium-stained panels of a 2% (w/v) agarose gel containing 10 μl of each PCR reaction after electrophoresis.

The source of these data is US7052865B1, “Identification of genes having a role in the presentation of diabetic nephropathy” (University College Dublin, National University of Ireland, …, priority 1999, dated 2006).

With `OC[C@@H](O)[C@@H](O)[C@H](O)[C@H](O)CO` [mannitol], in assay [1], the “Differential Expression of IHG-1 mRNA” value is given as “*”. In assay [1] (normalised to GAPDH), the “Differential Expression of ARP3 mRNA” value is given as 1.0-fold, the “Differential Expression of CAP mRNA” value is listed as 1.7-fold, the “Differential Expression of CTGF mRNA” value is listed as 1.5-fold and the “Differential Expression of Caldesmon mRNA” value is 2.8-fold. Further, in assay [1] (normalised to GAPDH), the “Differential Expression of Fibronectin mRNA” value is given as 1.5-fold, the “Differential Expression of IHG-2 mRNA” value was 2.0-fold, the “Differential Expression of MRLC mRNA” value was 1.6-fold and the “Differential Expression of PAI-1 mRNA (2.0 kb)” value is 1.0-fold. In addition, in assay [1] (normalised to GAPDH), the “Differential Expression of PAI-1 mRNA (3.0 kb)” value is 2.0-fold, the “Differential Expression of Profilin mRNA” value is recorded as 2.3-fold, the “Differential Expression of RBM3 mRNA” value was 1.4-fold and the “Differential Expression of T-plastin mRNA” value is on record as 1.8-fold. In assay [1] (normalised to GAPDH), the “Differential Expression of TCTP mRNA” value is reported as 2.5-fold, the “Differential Expression of Thrombospondin mRNA” value was 8.0-fold and the “Differential Expression of Ubiquitin mRNA” value was 1.7-fold. Moreover, the “mesangial cell CTGF expression compared with high glucose” value in the assay with CTGF (25 mM mannitol + 5 mM glucose versus 30 mM glucose, in vitro) was “less mesangial cell CTGF expression in vitro than high glucose”.
Regarding “TGF-β1: human recombinant transforming growth factor β1 (Calbiochem)”, the “gremlin mRNA levels” value in the assay on gremlin is “augmented”. The “induction of CTGF mRNA levels” value with CTGF (TGF-β1 10 ng/ml, 24 hr, serum starved mesangial cells) is reported as “potent inducer”.
As to `CN(C)CCCn1cc(C2=C(c3c[nH]c4ccccc34)C(=O)NC2=O)c2ccccc21` [GF102903X], in the assay on CTGF (30 mM glucose, four days, inhibitor 10 μM), the “effect on high glucose-induced CTGF expression” value is “partial inhibition”. In addition, the “effect on TGF-β1-induced CTGF expression” value with CTGF (TGF-β1 10 ng/ml, 24 hr, antibody 1 μg/ml, GF102903X data not shown) was “without effect”.

B1: rhCTGF: recombinant human connective tissue growth factor protein (protein, UniProt P29279 27-349, looked up)
CCN family member 2: QNCSGPCRCPDEPAPRCPAGVSLVLDGCGCCRVCAKQLGELCTERDPCDPHKGLFCHFGSPANRKIGVCTAKDGAPCIFGGTVYRSGESFQSSCKYQCTCLDGAVGCMPLCSMDVRLPSPDCPFPRRVKLPGKCCEEWVCDEPKDQTVVGPALAAYRLEDTFGPDPTMIRANCLVQTTEWSACSKTCGMGISTRVTNDNASCRLEKQSRLCMVRPCEADLEENIKKGKKCIRTPKISKPIKFELSGCTSMKTYRAKFCGVCTDGRCCTPHRTTTLPVEFKCPDGEVMKKNMMFIKTCACHYNCPGDNDIFESLYYRKMYGDMA
On to B1, for which the “mesangial cell collagens I and IV and fibronectin mRNA (RT-PCR)” value with mesangial cells is given as “up-regulates”.
